Reference: PubChem BioAssay AID256 (DTP/NCI, 2004)
Where “and” joins values, the source holds several entries; their conditions need not be identical. Equal entries are not always repeated. Toxic doses and inconclusive results are not listed. Rule for the calls: active = survival T/C of 150% or more; inactive = T/C below 125% in these data.

Test system: CD2F1 mice, L1210 leukemia ip, survival T/C
Test: NCI In Vivo Anticancer Drug Screen. Data for tumor model L1210 Leukemia (intraperitoneal) in CD2F1 (CDF1) mice
Details: endpoint: mean survival time, higher = longer survival
Outline: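 Tumor-bearing mice (transplanted tumor) were split into treated and vehicle control groups, and the measured endpoint of each treated group was divided by that of its vehicle controls.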

[1] = dose: 200.0 mg/kg/injection, schedule: Q04DX003 (ip), vehicle: saline with Tween-80
[2] = dose: 25.0 mg/kg/injection, schedule: Q04DX003 (ip), vehicle: saline
[3] = dose: 50.0 mg/kg/injection, schedule: Q04DX003 (ip), vehicle: saline
[4] = dose: 100.0 mg/kg/injection, schedule: Q04DX003 (ip), vehicle: saline
[5] = dose: 200.0 mg/kg/injection, schedule: Q04DX003 (ip), vehicle: saline
[6] = dose: 25.0 mg/kg/injection, schedule: Q01DX009 (ip), vehicle: Klucel (hydroxypropylcellulose) (HPC)
[7] = dose: 50.0 mg/kg/injection, schedule: Q01DX009 (ip), vehicle: Klucel (hydroxypropylcellulose) (HPC)
[8] = dose: 100.0 mg/kg/injection, schedule: Q01DX009 (ip), vehicle: Klucel (hydroxypropylcellulose) (HPC)
[9] = dose: 200.0 mg/kg/injection, schedule: Q01DX009 (ip), vehicle: Klucel (hydroxypropylcellulose) (HPC)
[10] = dose: 100.0 mg/kg/injection, schedule: Q04DX003 (ip), vehicle: saline with Tween-80
[11] = dose: 400.0 mg/kg/injection, schedule: Q04DX003 (ip), vehicle: saline with Tween-80
[12] = dose: 100.0 mg/kg/injection, schedule: Q01DX009 (ip), vehicle: saline with Tween-80
[13] = dose: 200.0 mg/kg/injection, schedule: Q01DX009 (ip), vehicle: saline with Tween-80
[14] = dose: 400.0 mg/kg/injection, schedule: Q01DX009 (ip), vehicle: saline with Tween-80

Measured: T/C

N#CCCOP(=O)(N1CC1)N1CC1
inactive: dose: 3.9 mg/kg/injection, schedule: Q01DX001 (ip), vehicle: Klucel (hydroxypropylcellulose) (HPC) 100 % of control | dose: 4.0 mg/kg/injection, schedule: Q01DX009 (ip), vehicle: water 104 % of control | dose: 7.8 mg/kg/injection, schedule: Q01DX001 (ip), vehicle: Klucel (hydroxypropylcellulose) (HPC) 100 % of control | dose: 8.0 mg/kg/injection, schedule: Q01DX009 (ip), vehicle: water 114 % of control | dose: 15.6 mg/kg/injection, schedule: Q01DX001 (ip), vehicle: Klucel (hydroxypropylcellulose) (HPC) 109 % of control | dose: 31.2 mg/kg/injection, schedule: Q01DX001 (ip), vehicle: Klucel (hydroxypropylcellulose) (HPC) 122 % of control | dose: 62.5 mg/kg/injection, schedule: Q01DX001 (ip), vehicle: Klucel (hydroxypropylcellulose) (HPC) 121 % of control | dose: 64.0 mg/kg/injection, schedule: Q01DX009 (ip), vehicle: water 90 % of control

Nc1ncnc(N)c1NC(=O)c1ccc(OCCOc2ccccc2)c(Cl)c1
inactive: [1] 88 % of control

[NH-]C(CO)C(=O)O.[NH-]C(CO)C(=O)O.[Pt+2] (stereo unspecified)
inactive: dose: 0.78 mg/kg/injection, schedule: Q04DX003 (ip), vehicle: saline with Tween-80 100 % of control | dose: 1.56 mg/kg/injection, schedule: Q04DX003 (ip), vehicle: saline with Tween-80 92 % of control | dose: 3.13 mg/kg/injection, schedule: Q04DX003 (ip), vehicle: saline with Tween-80 95 % of control | dose: 3.13 mg/kg/injection, schedule: Q04DX003 (ip), vehicle: water 100 % of control | dose: 6.25 mg/kg/injection, schedule: Q04DX003 (ip), vehicle: saline with Tween-80 97 % of control | dose: 6.25 mg/kg/injection, schedule: Q04DX003 (ip), vehicle: saline 102 % of control | dose: 6.25 mg/kg/injection, schedule: Q04DX003 (ip), vehicle: water 103 % of control | dose: 12.5 mg/kg/injection, schedule: Q04DX003 (ip), vehicle: saline with Tween-80 94 % of control | dose: 12.5 mg/kg/injection, schedule: Q04DX003 (ip), vehicle: saline 103 % of control | dose: 12.5 mg/kg/injection, schedule: Q04DX003 (ip), vehicle: water 101 % of control | [2] 100 % of control | dose: 25.0 mg/kg/injection, schedule: Q04DX003 (ip), vehicle: water 91 % of control | [3] 103 % of control | dose: 50.0 mg/kg/injection, schedule: Q04DX003 (ip), vehicle: water 94 % of control | [4] 103 % of control | dose: 100.0 mg/kg/injection, schedule: Q04DX003 (ip), vehicle: water 88 % of control | [5] 86 % of control | dose: 200.0 mg/kg/injection, schedule: Q04DX003 (ip), vehicle: water 88 % of control

CC1CC(C)(O)CC(C(O)CC2CC(=O)NC(=O)C2)C1=O (stereo unspecified)
inactive: dose: 0.02 mg/kg/injection, schedule: Q01DX009 (ip), vehicle: saline 96 % of control and 102 % of control | dose: 0.04 mg/kg/injection, schedule: Q01DX009 (ip), vehicle: saline 105 % of control and 107 % of control | dose: 0.08 mg/kg/injection, schedule: Q01DX009 (ip), vehicle: saline 114 % of control | dose: 0.16 mg/kg/injection, schedule: Q01DX009 (ip), vehicle: saline 117 % of control and 122 % of control

CN(C)CCCCNc1ccc(NCCCCN(C)C)c2c1C(=O)c1c(O)ccc(O)c1C2=O
inactive: dose: 25.0 mg/kg/injection, schedule: Q01DX009 (ip), vehicle: saline 102 % of control | dose: 50.0 mg/kg/injection, schedule: Q01DX009 (ip), vehicle: saline 98 % of control | dose: 100.0 mg/kg/injection, schedule: Q01DX009 (ip), vehicle: saline 93 % of control

CC1(C2CC(=O)c3c(O)ccc(O)c3C2)OCCO1 (stereo unspecified)
inactive: [6] 104 % of control | [7] 109 % of control | [8] 95 % of control | [9] 98 % of control | dose: 400.0 mg/kg/injection, schedule: Q01DX009 (ip), vehicle: Klucel (hydroxypropylcellulose) (HPC) 102 % of control

NCCCN1CCCCC1
inactive: dose: 100.0 mg/kg/injection, schedule: Q04DX002 (ip), vehicle: saline 102 % of control | dose: 200.0 mg/kg/injection, schedule: Q04DX002 (ip), vehicle: saline 95 % of control | dose: 400.0 mg/kg/injection, schedule: Q04DX002 (ip), vehicle: saline 102 % of control

CSc1ccccc1C(C)(C)C(=O)O
inactive: [10] 105 % of control | [1] 105 % of control | [11] 96 % of control

COc1ccc(/C=N\N2C(=O)/C(=C\c3ccc(OC)cc3)SC2=S)cc1
inactive: [10] 97 % of control | [1] 93 % of control | [11] 89 % of control

ClC1CCCC[N-]1.ClC1CCCC[N-]1.[Cl][Pt+2][Cl] (stereo unspecified)
inactive: dose: 12.5 mg/kg/injection, schedule: Q01DX009 (ip), vehicle: Klucel (hydroxypropylcellulose) (HPC) 103 % of control | [6] 100 % of control | [7] 95 % of control | [8] 94 % of control | [9] 97 % of control

COC(=O)/C1=C/CCCCCC(=O)C1C(=O)OC (stereo unspecified)
inactive: [12] 96 % of control | [10] 96 % of control | [13] 96 % of control | [1] 100 % of control | [14] 93 % of control | [11] 96 % of control

c1ccc2c(c1)ccc1c2c[n+](CCCCCCCC[n+]2cc3c4ccccc4ccc3c3ccccc32)c2ccccc12
inactive: dose: 1.56 mg/kg/injection, schedule: Q04DX003 (ip), vehicle: distilled water + Tween-80 114 % of control | dose: 3.13 mg/kg/injection, schedule: Q04DX003 (ip), vehicle: distilled water + Tween-80 124 % of control

CC(C)N=C1C([O-])=N[N+](C)(C)N1C(C)C
inactive: [12] 106 % of control | [4] 95 % of control | [13] 93 % of control | [5] 98 % of control | [14] 98 % of control | dose: 400.0 mg/kg/injection, schedule: Q04DX003 (ip), vehicle: saline 110 % of control

CCOC(=O)N1CCc2nc3ccccc3cc21
inactive: dose: 50.0 mg/kg/injection, schedule: Q01DX001 (ip), vehicle: other 106 % of control | dose: 100.0 mg/kg/injection, schedule: Q01DX001 (ip), vehicle: other 109 % of control | dose: 200.0 mg/kg/injection, schedule: Q01DX001 (ip), vehicle: other 97 % of control

C=CCNc1ncnc2c1cnn2C
inactive: [4] 106 % of control | [5] 104 % of control

O=C(C[n+]1cccc(C(=O)NCc2ccccc2)c1)NCc1ccccc1
inactive: [2] 103 % of control | [3] 101 % of control | [4] 98 % of control

CCOC(=O)C1CCCNC1=O (stereo unspecified)
inactive: dose: 100.0 mg/kg/injection, schedule: Q01DX001 (ip), vehicle: saline 101 % of control | dose: 200.0 mg/kg/injection, schedule: Q01DX001 (ip), vehicle: saline 94 % of control | dose: 400.0 mg/kg/injection, schedule: Q01DX001 (ip), vehicle: saline 95 % of control

O=C(CCCN1CCC(O)(c2ccc(Cl)cc2)CC1)c1ccc(N2CCC(O)CC2)cc1
inactive: dose: 100.0 mg/kg/injection, schedule: Q04DX002 (ip), vehicle: saline with Tween-80 104 % of control | dose: 200.0 mg/kg/injection, schedule: Q04DX002 (ip), vehicle: saline with Tween-80 93 % of control | dose: 400.0 mg/kg/injection, schedule: Q04DX002 (ip), vehicle: saline with Tween-80 93 % of control
